Like-named read-outs stand apart in the source and are kept apart here.
Columns and labels:
CRBN/DDB1 = CRBN/DDB1 (Homo sapiens (Human), UniProt Q96SW2); assay: HTRF binding assay to CRBN/DDB1
Description: The binding potency was determined using HTRF assay technology (Perkin Elmer). Compounds were serially diluted in DMSO and 0.2 μL volume was transferred to white 384-well plate.

ER [1] = molecular target: T1, ER (Homo sapiens (Human), UniProt P03372); assay: In-cell western (ICW) ER degradation assay in MCF-7 cells; type: cell-based; details: MCF7, 16 hrs; for DC50: ER degradation; for MCF7 Dmax %: maximal ER degradation; for Dmax: MCF7, maximal ER degradation
ER [2] = molecular target: T1, ER; assay: In-cell western (ICW) ER degradation assay in T47D cells; type: cell-based; details: 16 hrs; for DC50: ER degradation; for T47D Dmax % / Dmax: maximal ER degradation
MCF-7 cells [3] = details: read-out: MCF7 Proliferation IC50; CellTiter-Glo, day 6
Description: (§1) In vitro assay can be accomplished by MCF-7 and T47D Cell Titer Glo (CTG) assay. MCF-7 and T47D cell (From HDB) are cultured in multi-well white plate with phenol red-free RPMI1640+10% CS-FBS+1% P/S medium (e.g., at 1,000 cells/well). On day 0: Cells are treated with compound at certain concentrations (e.g., 0.5 to 10000 nM) (DMSO and Staurosporine as control). On day 0 and day 6: add Cell Titer Glo reagent and read on EnVision after 30 min incubation for data generation.
(§2) • 1) Cell culture medium: phenol red-free RPMI1640+10% CS-FBS, 1% P/S
(§3) Day-1: MCF-7 and T47D cell (From HDB) were cultured in 384-well white plate with phenol red-free RPMI1640+10% CS-FBS+1% P/S medium (1,000 cells/well) for overnight at 37° C., 5% CO2 incubator.
(§4) Day 0: Cells were treated at desired compound concentrations (0.5 to 10000 nM) (DMSO and Staurosporine as control) for Day 6 at 37° C., 5% CO2 incubator.
(§5) Day 0 and Day 6: add Cell TiterGlo reagent and read on EnVision after 30 min incubation for data generation.

T47D cells [4] = details: read-out: T47D Proliferation IC50; CellTiter-Glo, day 6
Description: as §1, §2, §3, §4, §5

ERα_LBD(GST) = ERα_LBD(GST) (Homo sapiens (Human), UniProt P03372); assay: LanthaScreen TR-FRET ERα competitive binding assay; details: read-out: ERα HTRF IC50
How it was run: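 GST-tagged ERα LBD (4 nM) with Tb anti-GST (2 nM) and Fluormone ES2 Green tracer (3 nM) in nuclear receptor buffer K plus 5 mM DTT, 1% DMSO; 3-fold compound dilutions, 60 min at room temperature in the dark. TR-FRET 520/495 nm ratio vs log[ligand], sigmoidal fit for IC50; 1 μM ARV_471 as full-inhibition control.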

MCF-7 cells [5] = assay: cells; details: Homo sapiens, MCF7, 144 h, read-out: MCF7 Proliferation IC50 (nM)
Description: as §1, §2, §3, §4, §5

T47D cells [6] = assay: cells; details: Homo sapiens, 144 h, read-out: T47D Proliferation IC50 (nM)
Description: as §1, §2, §3, §4, §5

ER [7] = molecular target: T1, ER; assay: In-cell western blot analysis (Compounds B1 to B5); type: cell-based; details: 16 hours; read-out: ICW DC50
Description: In-cell western blot analysis. Cells are seeded in multi-well plates (e.g., at 40,000 or 10,000 cells/well). Diluted compounds at certain concentration are added (final 0.5% DMSO) and cells are incubated for a certain period of time (e.g., 16 hours). Formaldehyde (e.g., PBS:FA=9:1) is added and followed by washing with PBS. The cells are blocked with Licor blocking buffer (Li-Cor). The relative ER percentage in treated cells were obtained by comparing the values of treated wells to those in untreated and DMSO-treated wells as 100%.
In-cell western blot analysis, a. seed cells in black-sided/clear bottom 96- or 384-well plates at 40,000 or 10,000 cells/well, overnight; b, add diluted compounds (final 0.5% DMSO), 16 hours. 16 h later, remove medium, add 100 μL or 25 µL of 3.7-4.0% formaldehyde (PBS: FA=9:1), RT 20 min, no shaking; c. wash with PBS, and permeabilized with 100 μL or 25 μL/well of 1×PBS+0.1% Triton X-100 10 minutes; d. block with 100 μL or 25 L Licor blocking buffer (Li-Cor), RT 1 h, moderate shaking; d. Add 100 μL or 25 μL of anti-ER (cs-8644, 1:500-1,000)+GAPDH (Millipore MAB374, 1:1000) in Block+0.05% Tween 20. RT 2 h, gentle shaking. Negative control: cells plus secondary antibodies (no primary antibodies); e. wash×4 with PBS+0.05-0.1% Tween 20, gentel shaking; f, anti-rabbit-680 and anti-mouse-800 (both 1:1000 in LiCor block+0.05% Tween20, RT 1 h, gentle shaking, no light. LI-COR: 0.2% to reduce background; g. wash×4 with PBS+0.05% Tween 20, gental shaking; h, add 100 μL or 25 μL of PBS to each well and read on CLX plate reader. The relative ER percentage in treated cells were obtained by comparing the values of treated wells to those in untreated and DMSO-treated wells as 100%.

T47D cell line = assay: Cell growth assay (WST-8) in T47D cell line; type: cell-based; details: Homo sapiens, 96 h, WST-8, 4 days, read-out: Cell Growth Inhibition in T47D cell line IC50
Description: Cell Growth Assay. The cells are seeded at certain concentration (e.g., at 1500/well) in multi-well plates overnight. Cells are subsequently treated with the compounds. A certain period of time (e.g., 4 days) after the compound treatment, 10% WST-8 reagent is added to the culture medium and incubate under certain conduction (e.g., in a CO2 incubator at 37° C. for 2.5 hours). The absorbance is measured on each sample using a microplate reader at certain wavelength (e.g., 450 nm). The relative absorbance is calculated against the vehicle control from three individually repeats.
Cell Growth Assay. The cells were seeded at 1500/well in 96 well plates overnight. One day after the seeding, they were treated with indicated doses of compounds respectively. 4 days after the compound treatment, 10% WST-8 reagent was added to the culture medium and incubate in a CO2 incubator at 37° C. for 2.5 hours. Before reading, the plate was mixed gently on an orbital shaker for one minute to ensure homogeneous distribution of color. The absorbance was measured of each sample using a microplate reader at a wavelength of 450 nm. The relative absorbance was calculated against the vehicle control from three individually repeats.

Sequence of CRBN/DDB1 (Q96SW2 whole entry): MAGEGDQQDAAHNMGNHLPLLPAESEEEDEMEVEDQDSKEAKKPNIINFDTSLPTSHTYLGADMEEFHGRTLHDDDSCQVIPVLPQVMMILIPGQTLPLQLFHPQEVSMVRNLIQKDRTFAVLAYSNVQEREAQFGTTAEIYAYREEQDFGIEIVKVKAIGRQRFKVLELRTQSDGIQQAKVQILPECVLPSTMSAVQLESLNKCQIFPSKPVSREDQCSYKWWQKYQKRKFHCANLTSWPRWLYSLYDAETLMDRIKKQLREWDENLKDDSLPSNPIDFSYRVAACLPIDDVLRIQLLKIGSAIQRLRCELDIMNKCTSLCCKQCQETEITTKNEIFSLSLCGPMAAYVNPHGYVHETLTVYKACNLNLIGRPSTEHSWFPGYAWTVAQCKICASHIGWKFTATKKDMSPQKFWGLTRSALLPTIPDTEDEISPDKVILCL
Sequence of CRBN/DDB1 (Q16531 whole entry partner): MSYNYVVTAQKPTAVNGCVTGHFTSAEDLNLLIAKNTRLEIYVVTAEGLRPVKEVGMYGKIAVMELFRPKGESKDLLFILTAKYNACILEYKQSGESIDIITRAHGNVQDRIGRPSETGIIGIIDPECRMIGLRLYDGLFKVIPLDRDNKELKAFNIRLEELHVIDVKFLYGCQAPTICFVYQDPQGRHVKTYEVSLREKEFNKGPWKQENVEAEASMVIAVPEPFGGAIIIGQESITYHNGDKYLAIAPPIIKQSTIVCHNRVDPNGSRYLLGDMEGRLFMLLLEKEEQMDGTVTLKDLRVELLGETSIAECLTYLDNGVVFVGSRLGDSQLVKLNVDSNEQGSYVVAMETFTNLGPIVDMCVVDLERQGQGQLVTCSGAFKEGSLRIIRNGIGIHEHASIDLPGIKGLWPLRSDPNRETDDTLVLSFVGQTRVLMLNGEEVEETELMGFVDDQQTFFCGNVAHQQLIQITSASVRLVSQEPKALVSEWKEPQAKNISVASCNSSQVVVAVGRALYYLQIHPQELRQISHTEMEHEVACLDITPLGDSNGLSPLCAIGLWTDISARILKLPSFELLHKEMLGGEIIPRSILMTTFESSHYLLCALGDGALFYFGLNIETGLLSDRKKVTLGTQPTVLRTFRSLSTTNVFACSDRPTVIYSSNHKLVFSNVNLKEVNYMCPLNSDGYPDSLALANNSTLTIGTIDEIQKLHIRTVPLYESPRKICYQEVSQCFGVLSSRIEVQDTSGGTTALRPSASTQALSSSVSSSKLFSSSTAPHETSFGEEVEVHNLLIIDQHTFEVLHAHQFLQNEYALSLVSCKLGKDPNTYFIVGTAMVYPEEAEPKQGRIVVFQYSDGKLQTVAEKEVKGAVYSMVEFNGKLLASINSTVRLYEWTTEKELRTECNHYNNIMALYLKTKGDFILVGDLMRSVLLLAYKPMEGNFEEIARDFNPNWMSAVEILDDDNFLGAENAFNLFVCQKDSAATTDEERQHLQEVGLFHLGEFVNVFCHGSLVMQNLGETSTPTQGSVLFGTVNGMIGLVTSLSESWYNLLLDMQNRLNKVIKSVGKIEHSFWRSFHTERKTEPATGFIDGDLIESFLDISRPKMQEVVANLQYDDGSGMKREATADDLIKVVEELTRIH
Sequence of ERα_LBD(GST) (P03372 311-547): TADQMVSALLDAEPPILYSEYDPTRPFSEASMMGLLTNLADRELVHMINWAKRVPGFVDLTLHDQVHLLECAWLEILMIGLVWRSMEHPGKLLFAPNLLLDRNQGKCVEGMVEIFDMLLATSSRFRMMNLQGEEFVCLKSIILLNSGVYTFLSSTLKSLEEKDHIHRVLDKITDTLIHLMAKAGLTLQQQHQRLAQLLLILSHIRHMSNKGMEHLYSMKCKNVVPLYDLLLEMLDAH
T1 sequence (P03372 whole entry): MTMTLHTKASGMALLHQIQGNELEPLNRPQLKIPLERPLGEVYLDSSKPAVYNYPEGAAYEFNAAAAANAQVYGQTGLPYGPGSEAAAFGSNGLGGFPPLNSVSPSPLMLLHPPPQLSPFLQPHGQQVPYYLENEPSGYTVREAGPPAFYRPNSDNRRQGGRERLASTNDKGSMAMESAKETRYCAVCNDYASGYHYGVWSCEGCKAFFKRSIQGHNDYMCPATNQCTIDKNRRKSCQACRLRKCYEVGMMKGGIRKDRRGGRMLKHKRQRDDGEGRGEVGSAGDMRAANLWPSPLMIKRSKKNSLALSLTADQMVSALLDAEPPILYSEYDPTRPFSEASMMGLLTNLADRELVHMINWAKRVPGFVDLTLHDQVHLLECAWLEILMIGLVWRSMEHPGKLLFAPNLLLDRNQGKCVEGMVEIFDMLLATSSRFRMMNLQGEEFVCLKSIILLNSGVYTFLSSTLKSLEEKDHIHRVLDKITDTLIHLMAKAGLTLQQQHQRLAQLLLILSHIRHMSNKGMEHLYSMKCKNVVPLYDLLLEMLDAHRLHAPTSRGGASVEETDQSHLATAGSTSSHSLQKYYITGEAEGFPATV

Row | Structure (SMILES) | DC50 (ER [1]) [nM] | DC50 (ER [2]) [nM] | IC50 (MCF-7 cells [3]) [nM] | IC50 (T47D cells [4]) [nM] | IC50 (CRBN/DDB1; read-out: CRBN HTRF IC50) [nM] | IC50 (ERα_LBD(GST)) [nM] | Dmax (ER [1]) [%] | Dmax (ER [2]) [%] | DC50 (ER [7]) [nM] | IC50 (T47D cell line) [nM] | further results
1 | O=C1CCC(N2Cc3cc(N4CCN(CC5CC6(CCN(c7ccc([C@@H]8c9ccc(O)cc9OC[C@@H]8c8ccccc8)cn7)CC6)C5)CC4)ccc3C2=O)C(=O)N1 (single isomer, unassigned) [Compound A92] | < 1 | < 1 | < 50 | < 50 | – | – | – | – | – | – | IC50 (CRBN/DDB1; CRBN HTRF IC50 (nM)): > 5000 nM; MCF7 Dmax % (ER [1]): B (“B”: >50% and <75%); T47D Dmax % (ER [2]): B (“B”: >50% and <75%)
2 | O=C1CCC(N2Cc3cc4c(cc3C2=O)OC[C@@H]2CN(CC3CCC5(CC3)CN(c3ccc([C@@H]6c7ccc(O)cc7OC[C@@H]6c6ccccc6)cc3)C5)CCN42)C(=O)N1 (stereo partly drawn) [Compound A53, 3-((S)-3-((2-(4-((3S,4R)-7-hydroxy-3-phenylchroman-4-yl)phenyl)-2-azaspiro[3.5]nonan-7-yl)methyl)-8-oxo-1,2,3,4,4a,5,8,10-octahydro-9H-pyrazino[1′,2′:4,5][1,4]oxazino[2,3-f]isoindol-9-yl)piperidine-2,6-dione] | 1 to 10 | 1 to 10 | 50 to 500 | 50 to 500 | 500 to 5000 | < 5 | – | – | – | – | MCF7 Dmax % (ER [1]): B (“B”: >50% and <75%); T47D Dmax % (ER [2]): A (“A”; >=75%)
3 | O=C1CCC(N2Cc3cc(N4CCN(CC5CC6(CCN(c7ccc([C@H]8c9ccc(O)cc9OC[C@H]8c8ccccc8)cn7)CC6)C5)CC4)ccc3C2=O)C(=O)N1 (stereo partly drawn) [Compound A98, (R)-3-(5-(4-((7-(5-((3R,4S)-7-hydroxy-3-3-phenylchroman-4-yl)pyridin-2-yl)-7-azaspiro[3.5]nonan-2-yl)methyl)piperazin-1-yl)-1-oxoisoindolin-2-yl)piperidine-2,6-dione] | < 1 | < 1 | < 50 | < 50 | 50 to 500 | – | ≥ 75 | ≥ 75 | – | – | –
4 | O=C1CC[C@@H](N2Cc3cc4c(cc3C2=O)OC[C@H]2CN(CC3COC5(CCN(c6ccc([C@H]7c8ccc(O)cc8OC[C@H]7c7ccccc7)cc6)CC5)C3)CCN42)C(=O)N1 (stereo partly drawn) [Compound A138, (3R)-3-((4aR)-3-((8-(4-((3R,4S)-7-hydroxy-3-phenylchroman-4-yl)phenyl)-1-oxa-8-azaspiro[4.5]decan-3-yl)methyl)-8-oxo-1,2,3,4,4a,5,8,10-octahydro-9H-pyrazino[1′,2′:4,5][1,4]oxazino[2,3-f]isoindol-9-yl)piperidine-2,6-dione] | < 1 | < 1 | – | – | 50 to 500 | < 5 | ≥ 75 | 50 to 75 | – | – | IC50 (MCF-7 cells [5]): < 50 nM; IC50 (T47D cells [6]): < 50 nM
5 | O=C1CC[C@@H](N2Cc3c(ccc4c3OCC43CCN(CC4CCC5(CC4)CN(c4ccc([C@H]6c7ccc(O)cc7OC[C@H]6c6ccccc6)cc4)C5)CC3)C2=O)C(=O)N1 [Compound A154, (R)-3-(1′-((2-(4-((3R,4S)-7-hydroxy-3-phenylchroman-4-yl)phenyl)-2-azaspiro[3.5]nonan-7-yl)methyl)-6-oxo-6,8-dihydro-2H,7H-spiro[furo[2,3-e]isoindole-3,4′-piperidin]-7-yl)piperidine-2,6-dione] | < 1 | < 1 | – | – | < 50 | < 5 | 50 to 75 | ≥ 75 | – | – | IC50 (MCF-7 cells [5]): < 50 nM; IC50 (T47D cells [6]): < 50 nM
6 | O=C1CCC(N2Cc3c(ccc4c3OC[C@H]3CN(CC5CCN(c6ccc(C7c8ccc(O)cc8OCC7c7ccccc7)cc6)CC5)CCN43)C2=O)C(=O)N1 (stereo partly drawn) [Compound B1, 3-((5aR)-7-((1-(4-(7-hydroxy-3-phenylchroman-4-yl)phenyl)piperidin-4-yl)methyl)-1-oxo-1,3,5,5a,6,7,8,9-octahydro-2H-pyrazino[1′,2′:4,5][1,4]oxazino[2,3-e]isoindol-2-yl) piperidine-2,6-dione] | – | – | – | – | – | – | – | – | > 100 | > 10 | –
7 | O=C1CCC(N2Cc3c(ccc4c3OC[C@H]3CN(CC5CC6(CCN(c7ccc(C8c9ccc(O)cc9OCC8c8ccccc8)cc7)CC6)C5)CCN43)C2=O)C(=O)N1 (stereo partly drawn) [Compound B2] | – | – | – | – | – | – | – | – | > 100 | > 10 | –
8 | O=C1CCC(N2Cc3cc4c(cc3C2=O)OC[C@@H]2CN(CC3CC5(CCN(c6ccc(C7c8ccc(O)cc8OCC7c7ccccc7)cc6)CC5)C3)CCN42)C(=O)N1 (stereo partly drawn) [Compound B3, 3-((4aS)-3-((7-(4-(7-hydroxy-3-phenylchroman-4-yl)phenyl)-7-azaspiro[3.5]nonan-2-yl)methyl)-8-oxo-1,2,3,4,4a,5,8,10-octahydro-9H-pyrazino[1′,2′:4,5] [1,4]oxazino[2,3-f]isoindol-9-yl) piperidine-2,6-dione] | – | – | – | – | – | – | – | – | > 100 | > 10 | –
9 | O=C1CCC(N2Cc3c(ccc4c3OCC43CCN(CC4CC5(CCN(c6ccc(C7c8ccc(O)cc8OCC7c7ccccc7)cc6)CC5)C4)CC3)C2=O)C(=O)N1 (stereo not drawn) [Compound B4, 3-(1′-((7-(4-(7-hydroxy-3-phenylchroman-4-yl)phenyl)-7-azaspiro[3.5]nonan-2-yl)methyl)-6-oxo-6,8-dihydro-2H,7H-spiro[furo [2,3-e]isoindole-3,4′-piperidin]-7-yl)piperidine-2,6-dione] | – | – | – | – | – | – | – | – | > 100 | > 10 | –
10 | O=C1CCC(N2C(=O)c3cc4c(cc3C2=O)CN(CC(=O)N2CCC3(CC2)CCN(c2ccc(C5c6ccc(O)cc6OCC5c5ccccc5)cc2)CC3)C4)C(=O)N1 (stereo not drawn) [Compound B5, 2-(2,6-dioxopiperidin-3-yl)-6-(2-(9-(4-(7-hydroxy-3-phenylchroman-4-yl)phenyl)-3,9-diazaspiro[5.5]undecan-3-yl)-2-oxoethyl)-6,7-dihydropyrrolo[3,4-f]isoindole-1,3(2H,5H)-dione] | – | – | – | – | – | – | – | – | > 100 | > 10 | –

Reference: US20260000676A1, “CHROMAN DERIVATIVES AS ESTROGEN RECEPTOR DEGRADERS” (THE REGENTS OF THE UNIVERSITY OF MICHIGAN, priority 2022, published 2026)
